Like-named read-outs stand apart in the source and are kept apart here.
Test system: test plant species
Test: Post-emergent herbicidal activity test (greenhouse, foliar spray, visual growth reduction)
Type: in vivo
Conditions: post-emergence, 336 h, 140 g ai/ha
Protocol: Post-emergent Test: Seeds or nutlets of the desired test plant species were planted in Sun Gro Metro-Mix® 360 planting mixture, which typically has a pH of 6.0 to 6.8 and an organic matter content of about 30 percent, in plastic pots with a surface area of 64 square centimeters. In some aspects, to ensure good germination and healthy plants, a fungicide treatment and/or other chemical or physical treatment was applied. The plants were grown for 7-21 d in a greenhouse with an approximate 15 h photoperiod which was maintained at 23-29° C. during the day and 22-28° C. during the night. Nutrients and water were added on a regular basis and supplemental lighting was provided with overhead metal halide 1000-Watt lamps as necessary. Plants were used for testing when they reached the first or second true leaf stage. A weighed amount, determined by the highest rate to be tested, of each test compound was placed in a 25 mL glass vial and was dissolved in 4 mL of a 97:3 v/v mixture of acetone and DMSO to obtain concentrated stock solutions. […] The concentrated stock solutions obtained were diluted with 20 mL of an aqueous mixture containing acetone, water, isopropyl alcohol, DMSO, […] crop oil concentrate, and X-77 surfactant in a 48.5:39:10:1.5:1.0:0.02 v/v ratio to obtain spray solutions containing the application rate. Compound requirements are based upon a 12 mL application volume at a rate of 187 liters per hectare (L/ha). Formulated compounds were applied to the plant material with an overhead Mandel track sprayer equipped with […] nozzles calibrated to deliver 187 L/ha over an application area of 0.64 square meters at a spray height of 18 inches (43 cm) above the average plant canopy height. Control plants were sprayed in the same manner with the solvent blank. The treated plants and control plants were placed in a greenhouse as described above and watered by subirrigation to prevent wash-off of the test compounds. After 14 d, the condition of the test plants as compared with that of the nontreated and control plants was determined visually and scored on a scale of 0 to 100 percent where 0 corresponds to no injury and 100 corresponds to complete control. In the reporting of the results, Table A: Percent Growth Reduction Conversion Table was used.

[1] = ALOMY: blackgrass (Alopecurus myosuroides), 14 days after application, read-out: Visual Growth Reduction (%) 14 Days After Application, ALOMY
[2] = AMARE: redroot pigweed (Amaranthus retroflexus), 14 days after application, read-out: Visual Growth Reduction (%) 14 Days After Application, AMARE
[3] = AVEFA: wild oat (Avena fatua), 14 days after application, read-out: Visual Growth Reduction (%) 14 Days After Application, AVEFA
[4] = CHEAL: lambsquarters (Chenopodium album), 14 days after application, read-out: Visual Growth Reduction (%) 14 Days After Application, CHEAL
[5] = CIRAR: canada thistle (Cirsium arvense), 14 days after application, read-out: Visual Growth Reduction (%) 14 Days After Application, CIRAR
[6] = CYPES: yellow nutsedge (Cyperus esculentus), 14 days after application, read-out: Visual Growth Reduction (%) 14 Days After Application, CYPES
[7] = DIGSA: crabgrass (Digitaria sanguinalis), 14 days after application, read-out: Visual Growth Reduction (%) 14 Days After Application, DIGSA
[8] = ECHCG: barnyardgrass (Echinochloa crus-galli), 14 days after application, read-out: Visual Growth Reduction (%) 14 Days After Application, ECHCG
[9] = IPOHE: ivy-leaf morning glory (Ipomoea hederacea), 14 days after application, read-out: Visual Growth Reduction (%) 14 Days After Application, IPOHE
[10] = KCHSC: kochia (Bassia scoparia), 14 days after application, read-out: Visual Growth Reduction (%) 14 Days After Application, KCHSC
[11] = ORYSA: rice (Oryza sativa), 14 days after application, read-out: Visual Growth Reduction (%) 14 Days After Application, ORYSA
[12] = SETFA: giant foxtail (Setaria faberi), 14 days after application, read-out: Visual Growth Reduction (%) 14 Days After Application, SETFA
[13] = SORVU: grain sorghum (Sorghum vulgare), 14 days after application, read-out: Visual Growth Reduction (%) 14 Days After Application, SORVU
[14] = STEME: common chickweed (Stellaria media), 14 days after application, read-out: Visual Growth Reduction (%) 14 Days After Application, STEME
[15] = TRZAS: wheat, spring (Triticum aestivum), 14 days after application, read-out: Visual Growth Reduction (%) 14 Days After Application, TRZAS
[16] = blackgrass (Alopecurus myosuroides), 14 Days After Application, read-out: Visual Growth Reduction (%) ALOMY
[17] = canada thistle (Cirsium arvense), 14 Days After Application, read-out: Visual Growth Reduction (%) CIRAR
[18] = crabgrass (Digitaria sanguinalis), 14 Days After Application, read-out: Visual Growth Reduction (%) DIGSA
[19] = lambsquarters (Chenopodium album), 14 Days After Application, read-out: Visual Growth Reduction (%) CHEAL
[20] = redroot pigweed (Amaranthus retroflexus), 14 Days After Application, read-out: Visual Growth Reduction (%) AMARE
[21] = wild oat (Avena fatua), 14 Days After Application, read-out: Visual Growth Reduction (%) AVEFA
[22] = yellow nutsedge (Cyperus esculentus), 14 Days After Application, read-out: Visual Growth Reduction (%) CYPES

Compound | pest or weed control at 140 g/ha [1] [%] | pest or weed control at 140 g/ha [3] [%] | pest or weed control at 140 g/ha [4] [%] | pest or weed control at 140 g/ha [5] [%] | pest or weed control at 140 g/ha [6] [%] | pest or weed control at 140 g/ha [7] [%] | pest or weed control at 140 g/ha [8] [%] | pest or weed control at 140 g/ha [9] [%] | pest or weed control at 140 g/ha [10] [%] | pest or weed control at 140 g/ha [11] [%] | pest or weed control at 140 g/ha [12] [%] | pest or weed control at 140 g/ha [13] [%] | pest or weed control at 140 g/ha [14] [%] | pest or weed control at 140 g/ha [15] [%] | pest or weed control at 140 g/ha [16] [%] | pest or weed control at 140 g/ha [18] [%] | pest or weed control at 140 g/ha [19] [%] | pest or weed control at 140 g/ha [20] [%] | pest or weed control at 140 g/ha [21] [%] | pest or weed control at 140 g/ha [22] [%] | further results
COC(=O)c1nc(-c2ccc(C(F)(F)F)c(SC)c2Cl)ccc1Cl [F121, methyl 3-chloro-6-(2-chloro-3-(methylthio)-4-(trifluoromethyl)phenyl)picolinate] | 0 to 29 | 0 to 29 | 0 to 29 | 0 to 29 | 0 to 29 | 0 to 29 | 0 to 29 | 0 to 29 | 0 to 29 | 0 to 29 | 0 to 29 | 0 to 29 | 0 to 29 | 0 to 29 | – | – | – | – | – | – | pest or weed control at 140 g/ha [2]: 30 to 44%
COC(=O)c1nc(-c2ccc(C(F)(F)F)c(C)c2)c(F)cc1Cl [F309, Methyl 3-chloro-5-fluoro-6-(3-methyl-4-(trifluoromethyl)phenyl)picolinate] | – | – | – | – | – | – | 0 to 29 | 0 to 29 | 0 to 29 | 0 to 29 | 0 to 29 | 0 to 29 | 0 to 29 | 0 to 29 | 0 to 29 | 0 to 29 | 45 to 59 | 45 to 59 | 0 to 29 | 0 to 29 | pest or weed control at 140 g/ha [17]: 0 to 29%
CCOC(=O)c1nc(-c2ccc(Cl)c(OC)c2F)cc(OCC)c1N [F77, ethyl 3-amino-6-(4-chloro-2-fluoro-3-methoxyphenyl)-4-ethoxypicolinate] | 0 to 29 | 0 to 29 | 45 to 59 | 0 to 29 | 0 to 29 | 0 to 29 | 0 to 29 | 0 to 29 | – | 0 to 29 | 0 to 29 | 0 to 29 | 0 to 29 | 0 to 29 | – | – | – | – | – | – | –
COC(=O)c1nc(-c2cc(F)c(C(F)(F)F)cc2Cl)c(Cl)cc1Cl [F246, Methyl 3,5-dichloro-6-(2-chloro-5-fluoro-4-(trifluoromethyl)phenyl)picolinate] | – | – | – | – | – | – | 0 to 29 | 95 to 100 | 75 to 84 | 0 to 29 | 75 to 84 | 95 to 100 | 0 to 29 | 0 to 29 | 45 to 59 | 85 to 94 | 95 to 100 | 95 to 100 | 0 to 29 | 60 to 74 | pest or weed control at 140 g/ha [17]: 75 to 84%
COC(=O)c1nc(-c2ccc(C(F)(F)F)c(N)c2)ccc1Cl [F218, methyl 6-(3-amino-4-(trifluoromethyl)phenyl)-3-chloropicolinate] | – | – | – | – | – | – | 0 to 29 | 0 to 29 | 0 to 29 | 0 to 29 | 0 to 29 | 0 to 29 | 0 to 29 | 0 to 29 | 0 to 29 | 0 to 29 | 60 to 74 | 0 to 29 | 0 to 29 | 0 to 29 | pest or weed control at 140 g/ha [17]: 30 to 44%
O=C(O)c1nc(-c2cc(Br)c(C(F)(F)F)cc2Cl)ccc1Cl [F349, 6-(5-Bromo-2-chloro-4-(trifluoromethyl)phenyl)-3-chloropicolinic acid] | – | – | – | – | – | – | 0 to 29 | 95 to 100 | 85 to 94 | 0 to 29 | 75 to 84 | 85 to 94 | 0 to 29 | 85 to 94 | 60 to 74 | 75 to 84 | 95 to 100 | 60 to 74 | 60 to 74 | 0 to 29 | –
COC(=O)c1nc(-c2ccc(C(F)(F)F)c([S+](C)[O-])c2Cl)ccc1Cl (stereo not drawn) [F119, methyl 3-chloro-6-(2-chloro-3-(methylsulfinyl)-4-(trifluoromethyl)phenyl)picolinate] | 0 to 29 | 0 to 29 | 0 to 29 | 0 to 29 | 0 to 29 | 0 to 29 | 0 to 29 | 0 to 29 | 0 to 29 | 0 to 29 | 0 to 29 | 0 to 29 | 0 to 29 | 0 to 29 | – | – | – | – | – | – | pest or weed control at 140 g/ha [2]: 0 to 29%
